What was measured:
[1] = tested on: Aβ40; assay: In vivo efficacy B-1b/B-2b: brain soluble Aβ40, MSD electrochemiluminescence multiplex; conditions: mouse brain soluble fraction, dose 30 mg/kg oral dosing, 4 h after dose; untreated control set at 100; read-out: Aβ40 (% vs Ctrl)_Mean
Description: (§1) To determine whether acute administration of an Aβ42 lowering agent would reduce Aβ42 levels in vivo, non-transgenic rodents, e.g. mice or rats were used. Animals treated with the Aβ42 lowering agent were examined and compared to those untreated or treated with vehicle and brain levels of soluble Aβ42, Aβ40, Aβ38, and Aβ37 were quantitated by Meso Scale Discovery's (MSD) electrochemiluminescence detection technology. Treatment periods varied from hours (h) to days and were adjusted based on the results of the Aβ42 lowering once a time course of onset of effect could be established.
(§2) A typical protocol for measuring Aβ42 lowering in vivo is shown but it is only one of many variations that could be used to optimize the levels of detectable Aβ. For example, Aβ42 lowering compounds were formulated in 20% of Captisol® (a sulfobutyl ether of β-cyclodextrin) in water or 20% hydroxypropyl β cyclodextrin. The Aβ42 lowering agents were administered as a single oral dose or by any acceptable route of administration to overnight fasted animals. After 4 h, the animals were sacrificed and Aβ42 levels were analysed.
(§3) Blood was collected by decapitation and exsanguinations in EDTA-treated collection tubes. Blood was centrifuged at 1900 g for 10 minutes (min) at 4° C. and the plasma recovered and flash frozen for later analysis. The brain was removed from the cranium and hindbrain. The cerebellum was removed and the left and right hemisphere were separated. The left hemisphere was stored at −18° C. for quantitative analysis of test compound levels. The right hemisphere was rinsed with phosphate-buffered saline (PBS) buffer and immediately frozen on dry ice and stored at −80° C. until homogenization for biochemical assays.
(§4) Mouse brains from non-transgenic animals were resuspended in 8 volumes of 0.4% DEA (diethylamine)/50 mM NaCl containing protease inhibitors (Roche-11873580001 or 04693159001) per gram of tissue, e.g. for 0.158 g brain, add 1.264 ml of 0.4% DEA. All samples were homogenized in the FastPrep-24 system (MP Biomedicals) using lysing matrix D (MPBio #6913-100) at 6 m/s for 20 seconds. Homogenates were centrifuged at 20800×g for 5 min and supernatants collected. Supernatants were centrifuged at 221.300×g for 50 min. The resulting high speed supernatants were then transferred to fresh eppendorf tubes. Nine parts of supernatant were neutralized with 1 part 0.5 M Tris-HCl pH 6.8 and used to quantify Aβ.
(§5) To quantify the amount of Aβ42, Aβ40, Aβ38, and Aβ37 in the soluble fraction of the brain homogenates, simultaneous specific detection of Aβ42, Aβ40, Aβ38, and Aβ37 was performed using MSD's electro-chemiluminescence multiplex detection technology. In this assay purified monoclonal antibodies specific for Abeta37 (JRD/Aβ37/3), Abeta38 (J&JPRD/Aβ38/5), Abeta40 (JRF/cAβ40/28), and Abeta42 (JRF/cAβ42/26) were coated on MSD 4-plex plates. Briefly, the standards (a dilution of synthetic Aβ42, Aβ40, Aβ38, and Aβ37) were prepared in 1.5 ml Eppendorf tube in Ultraculture, with final concentrations ranging from 10000 to 0.3 pg/m. The samples and standards were co-incubated with Sulfo-tag labelled JRF/rAβ/2 antibody to the N-terminus of Aβ as detector antibody. 50 μl of conjugate/sample or conjugate/standards mixtures were then added to the antibody-coated plate. The plate was allowed to incubate overnight at 4° C. in order to allow formation of the antibody-amyloid complex. Following this incubation and subsequent wash steps the assay was finished by adding read buffer according to the manufacturer's instructions (Meso Scale Discovery, Gaitherburg, Md.).
(§6) The SULFO-TAG emits light upon electrochemical stimulation initiated at the electrode. MSD Sector instrument SI6000 was used for signal read-out.
The results are shown in Table 5 (dose 30 mg/kg oral dosing) (value for untreated animals as control (Ctrl) was set at 100): […]

[2] = tested on: Aβtotal; assay: Screening for γ-secretase-modulating activity: Aβtotal in supernatant of SKNBE2 cells carrying hAPP 695 wild type (Alphalisa); type: cell-based, human; conditions: overnight incubation, Alphalisa on supernatant
Summary of the method: (§7)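 Secreted Aβ42 (C-terminal/N-terminal antibody pair) and Aβtotal (N-terminal/mid-region pair) were quantified by AlphaLISA after overnight compound exposure of wild-type hAPP 695 SKNBE2 cells at 37 °C. Values expressed relative to compound-free maximum, with IC50 from nonlinear 4-parameter regression.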

[3] = tested on: Aβ42; assay: In vivo efficacy B-1b: brain soluble Aβ42, MSD electrochemiluminescence multiplex; conditions: mouse brain soluble fraction, dose 30 mg/kg oral dosing, 4 h after dose; untreated control set at 100; read-out: Aβ42 (% vs Ctrl)_Mean
Description: as §1, §2, §3, §4, §5, §6
In this model a Aβ42 lowering compared to untreated animals would be advantageous, in particular a Aβ42 lowering with at least 10%, more in particular a Aβ42 lowering with at least 20%. […]

[4] = tested on: Aβ38; assay: In vivo efficacy B-2b: brain soluble Aβ38, MSD electrochemiluminescence multiplex; conditions: mouse brain soluble fraction, dose 30 mg/kg oral dosing, 4 h after dose; untreated control set at 100; read-out: Aβ38 (% vs Ctrl)_Mean
Description: as §1, with “Aβ38 increasing agents” for “Aβ42 lowering agent”, “increase Aβ38” for “reduce Aβ42”, “MSD” for “Meso Scale Discovery's (MSD)”, “Aβ38 increase” for “Aβ42 lowering”
as §2, with “measuring Aβ38 increase” for “measuring Aβ42 lowering”, “example, Aβ38 increasing agents” for “example, Aβ42 lowering compounds”, “The Aβ38 increasing” for “The Aβ42 lowering”, “and Aβ38” for “and Aβ42”
as §3, §4, §5, §6
In this model a Aβ38 increase compared to untreated animals would be advantageous, in particular a Aβ38 increase with at least 10%, more in particular a Aβ38 increase with at least 20%. […]

[5] = tested on: Aβ42; assay: Screening for γ-secretase-modulating activity: Aβ42 in supernatant of SKNBE2 cells carrying hAPP 695 wild type (Alphalisa); type: cell-based, human; conditions: SKNBE2 human neuroblastoma cells carrying hAPP 695 wild type; overnight incubation; Alphalisa on supernatant
Summary of the method: as §7

[6] = Homo sapiens, SKNBE2, SKNBE2 human neuroblastoma cells carrying hAPP 695 wild type
[7] = SKNBE2 human neuroblastoma cells carrying hAPP 695 wild type

SMILES	response vs control in vivo at 30 mg/kg [1] [%]	IC50 [2, 6] [µM]	response vs control in vivo at 30 mg/kg [3] [%]	response vs control in vivo at 30 mg/kg [4] [%]	IC50 [5] [nM]	melting point [°C]	IC50 [2, 7] [µM]
COc1c(C#N)ccc2[nH]c(-c3cn4c(n3)C(c3ccccc3C(F)(F)F)OCC4)cc12 (single isomer, unassigned) [Compound 44, 2-[5,6-dihydro-8-[2-(trifluoromethyl)phenyl]-8H-imidazo[2,1-c][1,4]oxazin-2-yl]-4-methoxy-1H-indole-5-carbonitrile]	31	> 10	27	110	21		
COc1c(C#N)ccc2[nH]c(-c3nc4n(n3)CCOC4c3ccccc3C(F)(F)F)cc12 (single isomer, unassigned) [Compound 56, 2-[5,6-dihydro-8-[2-(trifluoromethyl)phenyl]-8H-[1,2,4]triazolo[5,1-c][1,4]oxazin-2-yl]-4-methoxy-1H-indole-5-carbonitrile]	91	> 10	54	139	45		
COc1c(C#N)ccc2[nH]c(-c3cn4c(n3)C(c3c(F)cccc3Cl)OCC4)cc12 (single isomer, unassigned) [Compound 122, 2-[8-(2-chloro-6-fluorophenyl)-5,6-dihydro-8H-imidazo[2,1-c][1,4]oxazin-2-yl]-4-methoxy-1H-indole-5-carbonitrile]	90	> 10	74	145	39		
COc1c(C#N)ccc2[nH]c(-c3cn4c(n3)C(c3cccc(F)c3C(F)(F)F)OCC4)cc12 (single isomer, unassigned) [Compound 131, 2-[8-[3-fluoro-2-(trifluoromethyl)phenyl]-5,6-dihydro-8H-imidazo[2,1-c][1,4]oxazin-2-yl]-4-methoxy-1H-indole-5-carbonitrile]	72	6.46	62	144	27		
COc1c(C#N)ccc2[nH]c(-c3nc4n(n3)CCOC4c3cccc(F)c3C(F)(F)F)cc12 (single isomer, unassigned) [Compound 133, 2-[8-[3-fluoro-2-(trifluoromethyl)phenyl]-5,6-dihydro-8H-[1,2,4]triazolo[5,1-c][1,4]oxazin-2-yl]-4-methoxy-1H-indole-5-carbonitrile]	107	> 10	98	119	59		
COc1c(C#N)ccc2[nH]c(-c3cn4c(n3)C(c3c(C)cccc3F)OCC4)cc12 (stereo not shown) [Compound 139, 2-[8-(2-fluoro-6-methylphenyl)-5,6-dihydro-8H-imidazo[2,1-c][1,4]oxazin-2-yl]-4-methoxy-1H-indole-5-carbonitrile]					1620	296.2	> 10
COc1c(C#N)ccc2[nH]c(-c3nc4n(n3)CCOC4c3c(C)cccc3F)cc12 (stereo not shown) [Compound 141, 2-[8-(2-fluoro-6-methylphenyl)-5,6-dihydro-8H-[1,2,4]triazolo[5,1-c][1,4]oxazin-2-yl]-4-methoxy-1H-indole-5-carbonitrile]					28	244.4	> 10
COc1c(C#N)ccc2[nH]c(-c3nc4n(n3)CCOC4c3c(C)cccc3F)cc12 (stereo not shown) [Compound 142, 2-[8-(2-fluoro-6-methylphenyl)-5,6-dihydro-8H-[1,2,4]triazolo[5,1-c][1,4]oxazin-2-yl]-4-methoxy-1H-indole-5-carbonitrile]					2820	244.8	> 10
COc1c(C#N)ccc2[nH]c(-c3nc4n(n3)CCOC4c3cccc(F)c3C)cc12 (stereo not shown) [Compound 150, 2-[8-(3-fluoro-2-methylphenyl)-5,6-dihydro-8H-[1,2,4]triazolo[5,1-c][1,4]oxazin-2-yl]-4-methoxy-1H-indole-5-carbonitrile]					2190	238.2	> 10
COc1c(C#N)ccc2[nH]c(-c3nc4n(n3)CCOC4c3ccc(F)c(Cl)c3)cc12 (stereo not shown) [Compound 156, 2-[8-(3-chloro-4-fluorophenyl)-5,6-dihydro-8H-[1,2,4]triazolo[5,1-c][1,4]oxazin-2-yl]-4-methoxy-1H-indole-5-carbonitrile]					85	267.3	> 10
COc1c(C#N)ccc2[nH]c(-c3nc4n(n3)CCOC4c3ccc(F)c(Cl)c3)cc12 (stereo not shown) [Compound 157, 2-[8-(3-chloro-4-fluorophenyl)-5,6-dihydro-8H-[1,2,4]triazolo[5,1-c][1,4]oxazin-2-yl]-4-methoxy-1H-indole-5-carbonitrile]					7590	265.5	> 10
COc1c(C#N)ccc2[nH]c(-c3cn4c(n3)C(c3cc(F)ccc3C)OCC4)cc12 (stereo not shown) [Compound 159, 2-[8-(5-fluoro-2-methylphenyl)-5,6-dihydro-8H-imidazo[2,1-c][1,4]oxazin-2-yl]-4-methoxy-1H-indole-5-carbonitrile]					676	277.1	> 10
COc1c(C#N)ccc2[nH]c(-c3cn4c(n3)C(c3ccccc3C3CC3)OCC4)cc12 (stereo not shown) [Compound 169, 2-[8-(2-cyclopropylphenyl)-5,6-dihydro-8H-imidazo[2,1-c][1,4]oxazin-2-yl]-4-methoxy-1H-indole-5-carbonitrile]					759	270.8	> 10
COc1c(C#N)ccc2[nH]c(-c3cn4c(n3)C(c3ccccc3C3CC3)OCC4)cc12 (stereo not shown) [Compound 170, 2-[8-(2-cyclopropylphenyl)-5,6-dihydro-8H-imidazo[2,1-c][1,4]oxazin-2-yl]-4-methoxy-1H-indole-5-carbonitrile]		> 10			11	269.8	
